Where a SMILES comes first, the peptide text is derived from it.
Experiments:
[1] = system: Strain DH5α transformed with a pRL663 derivative (substituted RNAP β′ subunit); assay: Minimum bacteriocidal concentration (MBC) assays, MccJ25-resistant rpoC mutants; format: cell-based, Escherichia coli; conditions: for MBC (minimum bacteriocidal concentration): 2 hr at 37° C.
Protocol: (RNAP β′ subunit comprises nearly one-half of all residues of RNAP and comprises all residues of the RNAP secondary channel). Mutagenesis using error-prone PCR was performed (Zhou (1991) Nucl. Acids Res. 19, 6052; Zhou et al., (1993) Proc. Natl. Acad. Sci. USA 90, 6081-6085) of five DNA segments spanning the length of a plasmid-borne rpoC gene (Table 1). Overall, 20 mutagenesis reactions were performed, ˜100,000 candidates were analyzed, and 22 independent plasmid-linked MccJ25-resistant mutants were isolated (Table 1). […] Complementation assays indicate that all 22 MccJ25-resistant mutants can complement an rpoC^ts mutant for growth at the non-permissive temperature, confirming that each encodes a β′ derivative functional in transcription—indeed sufficiently functional in transcription to support viability (Table 2, column 4).
A saturation mutagenesis using a set often “doped” oligodeoxyribonucleotide primers, designed to introduce all possible nucleotide substitutions at all positions of all codons for residues that line the RNAP secondary channel was performed (sequences in Table 3; methods essentially as in the following references (Ner et al., (1988) DNA 7, 127-134; Hermes et al., (1989) Gene 84, 143-151; and Niu et al., (1994) J. Mol. Biol. 243, 595-602). In total, 23 mutagenesis reactions were performed, ˜40,000 candidates were analyzed, and 105 independent plasmid-linked MccJ25-resistant mutants were isolated and characterized (Table 4).

[2] = system: Gram-negative bacterial species, including E. coli; conditions: Salomon and Farias (1992); cited from earlier work
RNAP secondary channel = RNAP secondary channel (Escherichia coli, UniProt P0A8T7); assay: Fluorescence-resonance-energy-transfer experiments with a fluorochrome-labelled MccJ25 derivative; format: binding; conditions: preliminary results
Source text: The results of Yuzenkova et al., (2002) J. Biol. Chem. 277, 50867-50875, although limited, also indicate that inhibition involves a multi-residue determinant within the RNAP secondary channel (five sites for substitutions conferring MccJ25-resistance). […] The RNAP secondary channel is a 25 Å long, ˜10-15 Å wide, fully enclosed tunnel through which NTPs must pass to access the RNAP active-center and NTP binding site (Zhang et al., (1999) Cell 98, 811-824; Cramer et al., (2001) Science 292, 1863-1876; and Ebright (2000) J. Mol. Biol. 304, 687-689).

RNAP holoenzyme = target: T1, RNAP holoenzyme (Escherichia coli, UniProt P0A8T7); assay: Fluorescence-detected abortive initiation assays; format: biochemical; conditions: iterative tri- and tetranucleotide synthesis
T1 construct: RNAP holoenzyme was prepared from, strain XE54/pREII-NHα; made in house; host or cells: E. coli strain XE54/pREII-NHα
T1 sequence (P0A7Z4 whole entry): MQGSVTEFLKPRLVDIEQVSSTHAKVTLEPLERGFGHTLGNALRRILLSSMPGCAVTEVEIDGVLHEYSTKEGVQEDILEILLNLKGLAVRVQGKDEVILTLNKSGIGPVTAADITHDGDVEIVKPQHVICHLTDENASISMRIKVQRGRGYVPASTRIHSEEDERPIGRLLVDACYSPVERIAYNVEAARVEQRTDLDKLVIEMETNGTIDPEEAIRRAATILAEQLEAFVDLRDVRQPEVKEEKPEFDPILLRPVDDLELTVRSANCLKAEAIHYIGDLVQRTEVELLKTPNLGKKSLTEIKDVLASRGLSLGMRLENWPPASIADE
T1 sequence (P0A800 whole entry, further chain): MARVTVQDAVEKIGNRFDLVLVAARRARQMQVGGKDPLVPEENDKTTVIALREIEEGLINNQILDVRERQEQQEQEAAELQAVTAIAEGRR
T1 sequence (P00579 whole entry, further chain): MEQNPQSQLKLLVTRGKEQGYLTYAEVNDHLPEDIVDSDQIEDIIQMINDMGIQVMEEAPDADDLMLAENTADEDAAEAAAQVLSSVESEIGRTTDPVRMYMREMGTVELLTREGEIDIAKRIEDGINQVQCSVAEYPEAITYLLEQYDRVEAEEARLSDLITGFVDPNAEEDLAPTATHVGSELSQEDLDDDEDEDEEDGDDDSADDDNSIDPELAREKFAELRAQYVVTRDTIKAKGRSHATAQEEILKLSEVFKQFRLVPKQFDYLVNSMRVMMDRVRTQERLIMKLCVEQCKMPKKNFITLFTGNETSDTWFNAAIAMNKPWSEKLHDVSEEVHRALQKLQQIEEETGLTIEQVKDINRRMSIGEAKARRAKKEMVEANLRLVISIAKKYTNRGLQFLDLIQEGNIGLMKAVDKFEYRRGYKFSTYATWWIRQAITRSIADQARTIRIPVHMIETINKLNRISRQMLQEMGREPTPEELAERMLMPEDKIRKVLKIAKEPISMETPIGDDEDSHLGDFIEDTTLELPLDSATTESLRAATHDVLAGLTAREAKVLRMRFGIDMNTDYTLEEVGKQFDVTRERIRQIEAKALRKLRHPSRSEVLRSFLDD
T1 sequence (P0A8T7 whole entry): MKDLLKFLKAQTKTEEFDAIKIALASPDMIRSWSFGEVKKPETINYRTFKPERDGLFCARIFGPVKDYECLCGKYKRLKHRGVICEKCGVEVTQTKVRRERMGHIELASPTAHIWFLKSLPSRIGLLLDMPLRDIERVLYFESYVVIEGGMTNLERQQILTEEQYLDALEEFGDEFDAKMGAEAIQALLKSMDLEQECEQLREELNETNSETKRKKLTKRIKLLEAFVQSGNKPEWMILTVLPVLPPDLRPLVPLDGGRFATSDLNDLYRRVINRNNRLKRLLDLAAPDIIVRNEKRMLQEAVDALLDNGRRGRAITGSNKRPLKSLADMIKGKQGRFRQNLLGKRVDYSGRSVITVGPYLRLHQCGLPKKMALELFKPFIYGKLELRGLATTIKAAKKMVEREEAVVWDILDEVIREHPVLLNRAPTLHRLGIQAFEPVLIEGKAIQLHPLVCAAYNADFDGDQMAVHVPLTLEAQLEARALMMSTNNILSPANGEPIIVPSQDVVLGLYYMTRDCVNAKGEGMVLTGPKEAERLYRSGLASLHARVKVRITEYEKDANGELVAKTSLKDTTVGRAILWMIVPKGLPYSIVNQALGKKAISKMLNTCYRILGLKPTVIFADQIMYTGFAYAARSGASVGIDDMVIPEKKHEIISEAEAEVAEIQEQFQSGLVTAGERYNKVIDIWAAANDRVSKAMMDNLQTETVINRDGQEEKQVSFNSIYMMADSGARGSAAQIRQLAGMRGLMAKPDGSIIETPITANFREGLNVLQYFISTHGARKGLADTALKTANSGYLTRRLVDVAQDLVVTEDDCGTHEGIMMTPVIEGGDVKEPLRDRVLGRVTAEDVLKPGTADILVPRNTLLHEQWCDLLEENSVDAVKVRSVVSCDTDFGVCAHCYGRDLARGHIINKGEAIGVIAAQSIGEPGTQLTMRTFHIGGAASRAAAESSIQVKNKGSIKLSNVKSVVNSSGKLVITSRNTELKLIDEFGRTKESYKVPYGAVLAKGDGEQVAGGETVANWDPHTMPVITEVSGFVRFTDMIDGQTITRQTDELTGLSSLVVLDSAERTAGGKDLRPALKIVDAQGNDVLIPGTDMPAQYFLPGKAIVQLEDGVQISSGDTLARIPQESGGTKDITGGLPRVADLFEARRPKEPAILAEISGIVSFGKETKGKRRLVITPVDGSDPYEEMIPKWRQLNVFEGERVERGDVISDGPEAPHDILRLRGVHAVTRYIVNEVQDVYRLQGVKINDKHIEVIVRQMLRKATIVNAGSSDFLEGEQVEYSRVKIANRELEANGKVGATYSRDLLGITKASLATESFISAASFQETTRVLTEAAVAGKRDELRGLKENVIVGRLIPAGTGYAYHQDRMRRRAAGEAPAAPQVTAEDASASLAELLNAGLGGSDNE
T1 sequence (P0A8V2 whole entry, further chain): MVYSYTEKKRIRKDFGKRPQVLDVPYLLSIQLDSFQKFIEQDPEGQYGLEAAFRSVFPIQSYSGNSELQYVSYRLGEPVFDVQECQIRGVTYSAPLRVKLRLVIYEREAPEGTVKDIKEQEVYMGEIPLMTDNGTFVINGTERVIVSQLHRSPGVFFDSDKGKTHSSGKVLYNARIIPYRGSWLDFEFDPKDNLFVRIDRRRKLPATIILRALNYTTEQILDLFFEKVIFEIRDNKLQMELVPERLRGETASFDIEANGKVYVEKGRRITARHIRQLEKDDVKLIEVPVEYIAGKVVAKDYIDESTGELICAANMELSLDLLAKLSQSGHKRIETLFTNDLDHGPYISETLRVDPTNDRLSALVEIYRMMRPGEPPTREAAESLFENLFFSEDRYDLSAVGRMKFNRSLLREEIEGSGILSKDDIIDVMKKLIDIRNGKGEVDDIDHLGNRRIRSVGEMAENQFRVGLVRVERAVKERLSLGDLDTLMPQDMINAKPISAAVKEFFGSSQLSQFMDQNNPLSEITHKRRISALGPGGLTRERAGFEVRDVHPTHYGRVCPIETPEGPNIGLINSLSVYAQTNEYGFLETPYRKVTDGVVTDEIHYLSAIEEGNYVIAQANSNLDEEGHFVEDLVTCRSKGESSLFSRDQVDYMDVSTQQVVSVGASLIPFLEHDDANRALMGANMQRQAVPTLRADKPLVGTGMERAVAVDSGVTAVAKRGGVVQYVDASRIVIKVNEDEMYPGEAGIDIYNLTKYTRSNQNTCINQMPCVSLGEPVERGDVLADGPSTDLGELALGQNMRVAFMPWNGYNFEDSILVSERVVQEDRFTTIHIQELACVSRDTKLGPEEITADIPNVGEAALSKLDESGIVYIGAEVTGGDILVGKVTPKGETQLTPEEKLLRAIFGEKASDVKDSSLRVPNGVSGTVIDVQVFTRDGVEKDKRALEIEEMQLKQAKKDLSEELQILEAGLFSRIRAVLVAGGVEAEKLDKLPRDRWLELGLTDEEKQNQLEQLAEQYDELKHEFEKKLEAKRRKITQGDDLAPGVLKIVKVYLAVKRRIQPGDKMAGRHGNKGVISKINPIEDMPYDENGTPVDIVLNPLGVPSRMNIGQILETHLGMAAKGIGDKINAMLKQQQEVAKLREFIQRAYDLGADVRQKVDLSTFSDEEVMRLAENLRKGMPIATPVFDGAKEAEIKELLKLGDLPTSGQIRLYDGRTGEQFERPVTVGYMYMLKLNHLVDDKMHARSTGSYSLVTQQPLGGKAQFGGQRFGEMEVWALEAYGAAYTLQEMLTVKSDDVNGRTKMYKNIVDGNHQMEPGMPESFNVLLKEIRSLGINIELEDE
Protocol: Following 15 min at 37° C. 0.5 μl mg/ml heparin was added, and, following a further 2 min at 37° C., 1 μl of 0.25-5 mM (y-AmNS)UTP (Molecular Probes, Inc.) was added, and reaction mixtures were transferred to sub-micro fluorometer cuvettes (Starna Cells, Inc.). Following 2 min at 37° C., RNA synthesis was initiated by addition of 2.5 μl 10 mM ApA, and fluorescence emission intensity was monitored 5 min at 37° C. [excitation wavelength=360 nm and emission wavelength=500 nm; excitation and emission slit widths=4 nm; QuantaMaster QM1 spectrofluororaeter (PTI, Inc).]. The quantity of UMP incorporated into RINA was determined from the quantity of (γ−AmNS)UTP consumed, which, in turn, was calculated as follows (Schlageck et al. 1979): (γ−AmNS)UTPconsumed=[(γ−AmNS)UTP0](Ft−F0)/(12.4×F0) where (γ−AmNS)UTP0 is the quantity of (γ−AmNS)UTP at time 0, F0 is the fluorescence emission intensity at time 0, and Ft is the fluorescence emission intensity at time t. Data were fit to full-competitive, partial-competitive, full-noncompetitive, partial-noncompetitive, full-uncompetitive, partial-uncompetitive, full-mixed, and partial-mixed models of inhibition as in the preceding section.

Compound: CC[C@H](C)[C@H](NC(=O)CNC(=O)[C@@H](NC(=O)[C@H](Cc1ccccc1)NC(=O)[C@H](Cc1ccc(O)cc1)NC(=O)[C@@H]1CCC(=O)NCC(=O)NCC(=O)N[C@@H](C)C(=O)NCC(=O)N[C@@H](Cc2c[nH]cn2)C(=O)N[C@@H](C(C)C)C(=O)N2CCC[C@H]2C(=O)N1)C(C)C)C(=O)NCC(=O)N[C@H](C(=O)N1CCC[C@H]1C(=O)N[C@H](C(=O)N[C@@H](CO)C(=O)N[C@@H](Cc1ccccc1)C(=O)N[C@@H](Cc1ccc(O)cc1)C(=O)NCC(=O)O)[C@@H](C)CC)[C@@H](C)O [MccJ25] (HELM PEPTIDE1{G.G.A.G.H.V.P.E.Y.F.V.G.I.G.T.P.I.S.F.Y.G}$PEPTIDE1,PEPTIDE1,1:R1-8:R3$$$V2.0)
- increase in MBC ([1]; 18 of 22 MccJ25-resistant mutants from random mutagenesis): ≥ 50 fold
- increase in MBC ([1]; all 22 MccJ25-resistant mutants from random mutagenesis): ≥ 50 fold
- MBC (minimum bacteriocidal concentration) ([1]; β′ 428 Thr->Asn): 0.5 mg/mi
- MBC (minimum bacteriocidal concentration) ([1]; β′ 428 Thr->Ile): 0.5 mg/mi
- MBC (minimum bacteriocidal concentration) ([1]; β′ 429 Leu->Gln): 0.5 mg/mi
- MBC (minimum bacteriocidal concentration) ([1]; β′ 430 His->Tyr): 0.5 mg/mi
- MBC (minimum bacteriocidal concentration) ([1]; β′ 498 Pro->Gln): 1 mg/mi
- MBC (minimum bacteriocidal concentration) ([1]; β′ 498 Pro->Leu): 1 mg/mi
- MBC (minimum bacteriocidal concentration) ([1]; β′ 503 Ser->Pro): 0.5 mg/mi
- MBC (minimum bacteriocidal concentration) ([1]; β′ 503 Ser->Tyr): 0.5 mg/mi
- MBC (minimum bacteriocidal concentration) ([1]; β′ 504 Gln->Arg): 0.5 mg/mi
- MBC (minimum bacteriocidal concentration) ([1]; β′ 504 Gln->Glu): 0.5 mg/mi
- MBC (minimum bacteriocidal concentration) ([1]; β′ 508 Leu->Val): 0.05 mg/mi
- MBC (minimum bacteriocidal concentration) ([1]; β′ 680 Asn->Lys): 0.5 mg/mi
- MBC (minimum bacteriocidal concentration) ([1]; β′ 684 Asp->Ala): 1 mg/mi
- MBC (minimum bacteriocidal concentration) ([1]; β′ 684 Asp->Glu): 0.5 mg/mi
- MBC (minimum bacteriocidal concentration) ([1]; β′ 684 Asp->Tyr): 0.5 mg/mi
- MBC (minimum bacteriocidal concentration) ([1]; β′ 684 Asp->Vai): 0.5 mg/mi
- MBC (minimum bacteriocidal concentration) ([1]; β′ 732 Gly->Asp): 0.1 mg/mi
- MBC (minimum bacteriocidal concentration) ([1]; β′ 733 Ser->Phe): 0.1 mg/mi
- MBC (minimum bacteriocidal concentration) ([1]; β′ 733 Ser->Tyr): 0.1 mg/mi
- MBC (minimum bacteriocidal concentration) ([1]; β′ 733 Ser->Val): 0.5 mg/mi
- MBC (minimum bacteriocidal concentration) ([1]; β′ 735 Ala->Δ): 1 mg/mi
- MBC (minimum bacteriocidal concentration) ([1]; β′ 736 Gln->Pro): 0.5 mg/mi
- MBC (minimum bacteriocidal concentration) ([1]; β′ 738 Arg->Leu): 0.05 mg/mi
- MBC (minimum bacteriocidal concentration) ([1]; β′ 744 Arg->His): 0.05 mg/mi
- MBC (minimum bacteriocidal concentration) ([1]; β′ 744 Arg->Pro): 0.05 mg/mi
- MBC (minimum bacteriocidal concentration) ([1]; β′ 748 Ala->Pro): 0.1 mg/mi
- MBC (minimum bacteriocidal concentration) ([1]; β′ 775 Ser->Cys): 0.5 mg/mi
- MBC (minimum bacteriocidal concentration) ([1]; β′ 776 Thr->Ile): 0.5 mg/mi
- MBC (minimum bacteriocidal concentration) ([1]; β′ 777 His->Pro): 0.5 mg/mi
- MBC (minimum bacteriocidal concentration) ([1]; β′ 777 His->Tyr): 1 mg/mi
- MBC (minimum bacteriocidal concentration) ([1]; β′ 779 Ala->Gly): 0.5 mg/mi
- MBC (minimum bacteriocidal concentration) ([1]; β′ 779 Ala->Pro): 0.5 mg/mi
- MBC (minimum bacteriocidal concentration) ([1]; β′ 779 Ala->Thr): 1 mg/mi
- MBC (minimum bacteriocidal concentration) ([1]; β′ 780 Arg->Cys): 1 mg/mi
- MBC (minimum bacteriocidal concentration) ([1]; β′ 782 Gly->Ala): 1 mg/mi
- MBC (minimum bacteriocidal concentration) ([1]; β′ 783 Leu->Pro): 0.1 mg/mi
- MBC (minimum bacteriocidal concentration) ([1]; β′ 784 Ala->Glu): 0.5 mg/mi
- MBC (minimum bacteriocidal concentration) ([1]; β′ 785 Asp->Gly): 0.5 mg/mi
- MBC (minimum bacteriocidal concentration) ([1]; β′ 786 Thr->Ala): 0.5 mg/mi
- MBC (minimum bacteriocidal concentration) ([1]; β′ 786 Thr->Ile): 0.5 mg/mi
- MBC (minimum bacteriocidal concentration) ([1]; β′ 788 Leu->Met): 1 mg/mi
- MBC (minimum bacteriocidal concentration) ([1]; β′ 789 Lys->Arg): 0.5 mg/mi
- MBC (minimum bacteriocidal concentration) ([1]; β′ 789 Lys->Asn): 1 mg/mi
- MBC (minimum bacteriocidal concentration) ([1]; β′ 789 Lys->Gln): 1 mg/mi
- MBC (minimum bacteriocidal concentration) ([1]; β′ 790 Thr->Ala): 1 mg/mi
- MBC (minimum bacteriocidal concentration) ([1]; β′ 790 Thr->Asn): 0.5 mg/mi
- MBC (minimum bacteriocidal concentration) ([1]; β′ 790 Thr->Ile): 1 mg/mi
- MBC (minimum bacteriocidal concentration) ([1]; β′ 790 Thr->Ser): 0.5 mg/mi
- MBC (minimum bacteriocidal concentration) ([1]; β′ 922 Cys->Tyr): 0.5 mg/mi
- MBC (minimum bacteriocidal concentration) ([1]; β′ 926 Pro->Ser): 0.5 mg/mi
- MBC (minimum bacteriocidal concentration) ([1]; β′ 927 Gly->Cys): 1 mg/mi
- MBC (minimum bacteriocidal concentration) ([1]; β′ 927 Gly->Ser): 1 mg/mi
- MBC (minimum bacteriocidal concentration) ([1]; β′ 930 Leu->Met): 1 mg/mi
- MBC (minimum bacteriocidal concentration) ([1]; β′ 931 Thr->Ala): 1 mg/mi
- MBC (minimum bacteriocidal concentration) ([1]; β′ 931 Thr->Ile): 1 mg/mi
- MBC (minimum bacteriocidal concentration) ([1]; β′ 932 Met->Ile): 1 mg/mi
- MBC (minimum bacteriocidal concentration) ([1]; β′ 933 Arg->Cys): 1 mg/mi
- MBC (minimum bacteriocidal concentration) ([1]; β′ 1136 Gly->Ala): 0.5 mg/mi
- MBC (minimum bacteriocidal concentration) ([1]; β′ 1136 Gly->Cys): 1 mg/mi
- MBC (minimum bacteriocidal concentration) ([1]; β′ 1137 Gly->Aia): 0.5 mg/mi
- MBC (minimum bacteriocidal concentration) ([1]; β′ 1137 Gly->Arg): 1 mg/mi
- MBC (minimum bacteriocidal concentration) ([1]; β′ 1240 Val->Glu): 0.5 mg/mi
- MBC (minimum bacteriocidal concentration) ([1]; β′ 1241 Tyr->Cys): 0.1 mg/mi
- MBC (minimum bacteriocidal concentration) ([1]; β′ 1241 Tyr->His): 0.1 mg/mi
- MBC (minimum bacteriocidal concentration) ([1]; β′ 1241 Tyr->Ser): 0.1 mg/mi
- MBC (minimum bacteriocidal concentration) ([1]; β′ 1244 Gln->Glu): 0.1 mg/mi
- MBC (minimum bacteriocidal concentration) ([1]; β′ 1244 Gln->Leu): 0.5 mg/mi
- MBC (minimum bacteriocidal concentration) ([1]; β′ 1244 Gln->Pro): 0.1 mg/mi
- MBC (minimum bacteriocidal concentration) ([1]; β′ 1247 Lys->Gln): 0.1 mg/mi
- MBC (minimum bacteriocidal concentration) ([1]; β′ 1247 Lys->Glu): 0.1 mg/mi
- MBC (minimum bacteriocidal concentration) ([1]; β′ 1248 lle->Ser): 0.1 mg/mi
- MBC (minimum bacteriocidal concentration) ([1]; β′ multiple-substitution mutant 493 Pro->Thr, 498 Pro->Thr): 0.1 mg/mi
- MBC (minimum bacteriocidal concentration) ([1]; β′ multiple-substitution mutant 732 Gly->Asp, 733 Ser->Ala): 0.1 mg/mi
- MBC (minimum bacteriocidal concentration) ([1]; β′ multiple-substitution mutant 732 Gly->Asp, 735 Gly->Thr): 0.5 mg/mi
- MBC (minimum bacteriocidal concentration) ([1]; β′ multiple-substitution mutant 733 Ser->Val, 734 Ala->Gly): 0.1 mg/mi
- MBC (minimum bacteriocidal concentration) ([1]; β′ multiple-substitution mutant 777 His->Ser, 778 Gly->Ala): 0.5 mg/mi
- bacteriocidal activity [2]: exhibits bacteriocidal activity
- binding site on RNAP (RNAP secondary channel): binds within the RNAP secondary channel
- mode of inhibition (RNAP holoenzyme): partial-competitive

— US8575306B2, “Target and method for inhibition of bacterial RNA polymerase” (Rutgers, The State University of New Jersey, priority 2002, dated 2013)
